{
  "source": "patent US20190124918A1",
  "about": "“BIOFILM FORMATION INHIBITOR AND BIOFILM FORMATION INHIBITING COMPOSITION” (KAO CORPORATION, priority 2016, published 2019)",
  "key": {"[1]": {"test_system": "biofilm-forming microbe isolated from cooling water taken from a water cooling tower", "test": "Biofilm inhibition test, quinone-based compound and chelating agent (OD570)", "assay_type": "cell-based", "settings": "Experiment No. 19: Toluquinone 0 ppm, Citric acid 10 ppm; 0 ppm/0 ppm gave 0.329", "protocol": "A biofilm-forming microbe (microbe showing a OD570 value of 0.3 or more in the test for determining the amount of biofilm (the following section 2-4)) isolated from cooling water taken from a water cooling tower was cultured in R2A culture medium at 30° C. for 16 hours while shaking. The turbidity (OD600) of the resultant culture solution was measured. The culture solution was diluted with R2A culture medium to prepare a suspension of 10^3 cfu/mL.\n(§1) Predetermined amounts of p-toluquinone and HEDP were weighed and solvent (MDG) was added to prepare a composition. Since citric acid and EDTA were not dissolved in MDG, they were directly added in culture solutions; at the same time, p-toluquinone was directly added to the culture solutions.\nThe suspension of a test microbe prepared in the above section 2-1) was added in individual wells of a 96 well microplate in an amount of 150 μL, and then, the test solutions prepared in the above section 2-2) was each added and culture was initiated.\nAfter the 96 well microplate was subjected to stationary culture performed at 30° C. for 48 hours, the culture solution was removed and the resultant microplate was washed with water. Subsequently, each well was stained with 0.1% crystal violet and 200 μL of ethanol was added. The absorbance (OD570) was measured to obtain the amount of biofilm (BF) formed."}, "[2]": {"test": "Dissolution in solvent (MDG) when preparing compositions", "assay_type": "physicochemical", "settings": "preparation of compositions", "protocol": "as §1"}, "[3]": {"test_system": "Pseudomonas PAO1 strain (ATCC 15692)", "test": "Growth of test microbe (turbidity OD600), 96-well microplate culture", "assay_type": "cell-based", "settings": "Pseudomonas; for inhibition at 22 ppm: final concentration 22 ppm; for inhibition at 44 ppm: final concentration 44 ppm; for inhibition at 89 ppm: final concentration 89 ppm; for inhibition at 133 ppm: final concentration 133 ppm; for inhibition at 155 ppm: final concentration 155 ppm; for inhibition at 177 ppm: final concentration 177 ppm", "protocol": "(§2) Pseudomonas PAO1 strain (ATCC 15692) was subjected to stationary culture performed in LB culture medium (Lysogeny Broth; manufactured by Becton Dickinson) at 37° C. for 24 hours. The turbidity (OD600) of the culture solution was measured. The culture solution was diluted with Mueller Hinton Broth (BBL made) to prepare a suspension (15 mL) having a turbidity (OD600) of 1/10^6.\nTo each of the wells of a 96-well microplate (351172; manufactured by Japan Becton Dickinson), 6 μL of DMSO (Tokyo Chemical Industry Co. Ltd) and an ethanol solution (1 μL, 3 μL or 5 μL) of a test compound were added. After that, the microplate was allowed to stand still at room temperature for 5 hours to evaporate ethanol. The suspension of Pseudomonas microbe prepared in the above step 1) was added in an amount of 145 μL per well and culture was initiated. As the test compound, 2-methylhydroquinone (Sigma Aldrich) and p-toluquinone (Tokyo Kasei) were used. As a reference compound, sodium hypochlorite (manufactured by Wako Pure Chemical Industries Ltd.) was used. As a control, an ethanol solvent (EtOH control) alone was used. The concentration of the test compound in the ethanol solution is 1,000 ppm or 10,000 ppm and the final concentration of the test compound in the culture solution was about from 7 to 333 ppm.\n(§3) After the 96-well microplate was subjected to stationary culture performed at 30° C. for 24 hours, turbidity (OD600) was measured to check growth. Subsequently, individual wells were stained with 0.1% crystal violet and thoroughly washed twice with physiological saline. To each well, 200 μL of ethanol was added and the absorbance (OD570) was measured to obtain the amount of the biofilm formed.\nCompounds listed in Table 3 were each added to a test microbe and culture was conducted by the same procedure as in Test Example 1 and the amount of growth (OD600) and the amount of biofilm formed (OD570) were measured. For compounds a, b, c, f, h, i, J and k, 20 mM ethanol solutions were prepared; whereas for compounds d, e, g, 5 mM ethanol solutions were prepared. The solutions were each added to a 96-well microplate in an amount of 1 to 8 μL and evaluation was made. The final concentrations of the individual compounds are described in Table 3.\n(§4) Growth inhibition rates relative to the control (ethanol alone) were calculated based on OD600 values measured and in accordance with the following expression. In addition, biofilm (BF) formation inhibition rates relative to the control (ethanol alone) were calculated based on OD570 values and in accordance with the following expression:\nGrowth inhibition (%)=(1−(compound addition group OD600/control group OD600))×100\n(§5) As a control, an ethanol solvent alone was used (EtOH control). The concentrations of test compounds in the ethanol solution were as follows: test compound 1: 20 mM, test compounds 2 to 7: 100 mM. To each of the wells of a 96-well microplate (351172; manufactured by Japan Becton Dickinson), 6 μL of DMSO (Tokyo Kasei) and an ethanol solution of each test compound (1 to 8 μL) were added and then the microplates were allowed to stand still at room temperature for 5 hours to evaporate ethanol. A suspension solution of a Pseudomonas microbe prepared in the same procedure as in Test Example 1, 1) was added in an amount of 145 μL per well and culture was initiated.\nas §3, with “culture” for “culture performed”, “formed. The growth inhibition rate and biofilm (BF) formation inhibition rate were calculated based on OD600 and OD570 values measured and in accordance with the expressions used in Test Example 2.” for “formed.”"}, "[4]": {"test_system": "Pseudomonas PAO1 strain (ATCC 15692)", "test": "Amount of biofilm formed (crystal violet, OD570), 96-well microplate culture", "assay_type": "cell-based", "settings": "Pseudomonas, read-out: BF inhibition (%); for inhibition at 22 ppm: final concentration 22 ppm; for inhibition at 44 ppm: final concentration 44 ppm; for inhibition at 89 ppm: final concentration 89 ppm; for inhibition at 133 ppm: final concentration 133 ppm; for inhibition at 155 ppm: final concentration 155 ppm; for inhibition at 177 ppm: final concentration 177 ppm", "protocol": "as §2, with “1/10^6. […]” for “1/10^6.”\nas §4\nBF inhibition (%)={1−(compound addition group OD570/control group OD570)}×100\nas §5\nas §3, with “culture” for “culture performed”, “formed. The growth inhibition rate and biofilm (BF) formation inhibition rate were calculated based on OD600 and OD570 values measured and in accordance with the expressions used in Test Example 2.” for “formed.”"}, "[5]": {"test_system": "cooling water taken from a water cooling tower", "test": "Aqueous system model (annular reactor): amount of biofilm formed on test pieces (OD570)", "assay_type": "cell-based", "settings": "Test Example 5; same procedure as Test Example 4; solvent control finally beyond 1.0", "protocol": "(§6) Biofilm formation inhibitory activity of p-toluquinone (Tokyo Kasei) was evaluated by an aqueous system model using an annular reactor (Art Science Co., Ltd.) having a 100 mL-volume culture tank. In the culture tank of the annular reactor, a cylindrical rotating body rotating at a speed of 160 rounds per minute was installed. To the rotating body, 12 test pieces were attached in advance. These test pieces were taken out at predetermined time intervals and biofilm formed on the test pieces was quantified. From a water cooling tower provided on a building rooftop and actually used, cooling water was taken and supplied to the annular reactor culture vessel (maintained at 30° C.) at a flow rate of 10 mL per minute; at the same time, an ethanol solution (15 g/L) of p-toluquinone was separately supplied to the annular reactor culture vessel by a syringe pump YSP-201 (manufactured by YMC) at a flow rate of 10 μL per minute (p-toluquinone concentration in cooling water in the culture tank was 15 ppm). The test pieces (n=2) taken out from the culture tank at predetermined time intervals were stained with 0.1% crystal violet, thoroughly washed twice with physiological saline and recovered in ethanol (15 mL). The absorbance (OD570) was measured to obtain the amount of the biofilm formed. […] Thereafter, the number of bacteria cells was measured. […]"}, "[6]": {"test_system": "cooling water taken from a water cooling tower", "test": "Aqueous system model (annular reactor): number of bacterial cells in water at inlet and outlet (R2A agar)", "assay_type": "cell-based", "settings": "Test Example 5; same procedure as Test Example 4; solvent control also about 10^4", "protocol": "as §6"}, "[7]": {"test_system": "B. coli", "settings": "to B. coli; Non Patent Literature 4; cited from earlier work"}},
  "data": [
    {"smiles": "O=C(O)CC(O)(CC(=O)O)C(=O)O", "note": "[Citric acid]", "values": [
      {"measurement": "OD570", "setting": "[1]", "result": 0.261},
      {"measurement": "dissolution in MDG (diethylene glycol monomethyl ether)", "setting": "[2]", "result": "not dissolved"}
    ]},
    {"smiles": "CCCCc1ccc(O)cc1O", "note": "[Compound 1, 4-Butylresorcinol]", "values": [
      {"measurement": "inhibition at 22 ppm", "setting": "[3]; Test Example 3", "result": "< 0", "unit": "%"},
      {"measurement": "inhibition at 44 ppm", "setting": "[3]; Test Example 3", "result": "< 0", "unit": "%"},
      {"measurement": "inhibition at 89 ppm", "setting": "[3]; Test Example 3", "result": "< 0", "unit": "%"},
      {"measurement": "inhibition at 133 ppm", "setting": "[3]; Test Example 3", "result": "< 0", "unit": "%"},
      {"measurement": "inhibition at 155 ppm", "setting": "[3]; Test Example 3", "result": 42.8, "unit": "%"},
      {"measurement": "inhibition at 177 ppm", "setting": "[3]; Test Example 3", "result": 32.7, "unit": "%"},
      {"measurement": "inhibition at 22 ppm", "setting": "[4]; Test Example 3", "result": 0.5, "unit": "%"},
      {"measurement": "inhibition at 44 ppm", "setting": "[4]; Test Example 3", "result": 18.3, "unit": "%"},
      {"measurement": "inhibition at 89 ppm", "setting": "[4]; Test Example 3", "result": 4.5, "unit": "%"},
      {"measurement": "inhibition at 133 ppm", "setting": "[4]; Test Example 3", "result": 12.9, "unit": "%"},
      {"measurement": "inhibition at 155 ppm", "setting": "[4]; Test Example 3", "result": 54.9, "unit": "%"},
      {"measurement": "inhibition at 177 ppm", "setting": "[4]; Test Example 3", "result": 45.9, "unit": "%"},
      {"measurement": "amount of the biofilm formed (OD570)", "setting": "[5]", "result": "≤ 0.4"},
      {"measurement": "number of bacterial cells at the inlet or outlet of the reactor", "setting": "[6]", "result": "about 10^4 cells/mL"}
    ]},
    {"smiles": "O=C(O)CN(CCN(CC(=O)O)CC(=O)O)CC(=O)O", "note": "[EDTA, Ethylenediaminetetraacetic acid]", "values": [
      {"measurement": "dissolution in MDG (diethylene glycol monomethyl ether)", "setting": "[2]", "result": "not dissolved"}
    ]},
    {"smiles": "CC(C)(C)c1cc(O)ccc1O", "note": "[c, tert-Butylhydroquinone]", "values": [
      {"measurement": "inhibition at 22 ppm", "setting": "[3]", "result": "< 0", "unit": "%"},
      {"measurement": "inhibition at 44 ppm", "setting": "[3]", "result": 5.3, "unit": "%"},
      {"measurement": "inhibition at 89 ppm", "setting": "[3]", "result": 9.5, "unit": "%"},
      {"measurement": "inhibition at 133 ppm", "setting": "[3]", "result": "< 0", "unit": "%"},
      {"measurement": "inhibition at 155 ppm", "setting": "[3]", "result": 11.8, "unit": "%"},
      {"measurement": "inhibition at 177 ppm", "setting": "[3]", "result": 13.3, "unit": "%"},
      {"measurement": "inhibition at 22 ppm", "setting": "[4]", "result": 34.8, "unit": "%"},
      {"measurement": "inhibition at 44 ppm", "setting": "[4]", "result": 22.5, "unit": "%"},
      {"measurement": "inhibition at 89 ppm", "setting": "[4]", "result": 32.5, "unit": "%"},
      {"measurement": "inhibition at 133 ppm", "setting": "[4]", "result": 50, "unit": "%"},
      {"measurement": "inhibition at 155 ppm", "setting": "[4]", "result": 69.3, "unit": "%"},
      {"measurement": "inhibition at 177 ppm", "setting": "[4]", "result": 64.8, "unit": "%"},
      {"measurement": "minimum inhibitory concentration (MIC)", "setting": "[7]", "result": 512, "unit": "ppm"}
    ]}
  ]
}
